According to ChEMBL document CHEMBL1156829 (Proc Natl Acad Sci U S A, 2008):

Tests used:
[1] = NOVARTIS: Cytotoxicity against human hepatocellular carcinoma cell line (Huh7); format: toxicity, cell-based, Huh-7; conditions: Huh7 cells (hepatocellular carcinoma cell line)
Plasmodium falciparum [2] = experiment: NOVARTIS: Inhibition of Plasmodium falciparum 3D7 (drug-susceptible) proliferation in erythrocyte-based infection assay; format: functional, organism-based; conditions: Plasmodium falciparum, 3D7
Plasmodium falciparum [3] = experiment: NOVARTIS: Inhibition of Plasmodium falciparum W2 (drug-resistant) proliferation in erythrocyte-based infection assay; format: functional, organism-based; conditions: Plasmodium falciparum, W2; read-out: EC50

Structure (SMILES) | CC50 [1] [µM] | EC50 (Plasmodium falciparum [2]) [µM] | EC50 (Plasmodium falciparum [3]) [µM]
CC1CC(C)CN(CCCNc2ccc(C(=O)Nc3ccc(C(F)(F)F)cc3)cc2[N+](=O)[O-])C1 (configuration not stated) | > 100 | 0.119 | 0.401
OC1=C2C(=Nc3ccccc3SC2c2ccccc2)c2ccccc21 (configuration not stated) | 27.1 | 0.0467 | 0.112
Cc1ccc(NC2=C(N3CCCCC3)C(=O)c3ccccc3C2=O)cc1 | 18.5 | 0.131 | 0.0775
O=C(NNc1ccccc1F)C1CCC1 | > 10 | 0.49 | 0.0406
Clc1ccc(-c2c[n+](Cc3ccccc3Cl)c3n2CCC3)cc1 | > 87 | 0.784 | 0.384
CCOC(=O)c1c(NC(=O)C(C)Sc2nnc(CNC(=O)c3ccco3)n2-c2cccc(Cl)c2)sc2c1CCCC2 (configuration not stated) | > 100 | > 12.5 | 0.424
c1ccc(-c2csc(Nc3nc4cc5c(cc4s3)OCO5)n2)nc1 | > 100 | 0.65 | 0.417
Cc1ccc(N2C(N)=NC(N)=NC2(C)C)cc1 | > 100 | 0.0193 | 0.43
CCC1(C)CC(CCNCc2ccccc2O)(c2ccccc2OC)CCO1 (configuration not stated) | 23.9 | 0.348 | 0.0961
CCOC(=O)c1[nH]c2ccc(C)cc2c1N=NN(C)C | 26.3 | 0.181 | 0.115
CCCCCCCC[n+]1c(C)n(CC)c2ccc(Cl)cc21 | 54.9 | 0.139 | 0.239
O=C(CC(=O)N1CCOCC1)Nc1ccc2nc3n(c(=O)c2c1)CCCCC3 | > 100 | > 10 | 0.432
c1ccc(-c2ccnc3c2ccc2c(-c4ccccc4)ccnc23)cc1 | > 100 | 0.329 | 0.43
CCCNC(=O)c1ccc(OC2CCN(CC3CCCCC3)CC2)c(Cl)c1 | 42.4 | 0.287 | 0.181
CCOC(=O)c1cnc2ccccc2c1NCCCN(C)C | 52.1 | 0.198 | 0.222
COc1ccc(NC(C)=C2C(=O)c3ccccc3C2=O)c(OC)c1 | > 100 | 1.27 | 0.426
COc1ccccc1C(=O)ON=C(N)Cc1cccc2ccccc12 | 49.6 | 0.352 | 0.212
c1ccc(Cn2c(N=NNc3nc4ccccc4n3Cc3ccccc3)nc3ccccc32)cc1 | 19.2 | 0.0854 | 0.0819
O=C(NCc1ccco1)c1ccc(OC2CCN(Cc3ccncc3)CC2)c(Cl)c1 | > 100 | 0.683 | 0.427
COC(=O)c1ccc2c(=O)n(Cc3ccc4c(c3)OCO4)c(SCC(=O)n3nc(C)cc3N)nc2c1 | > 10 | 0.144 | 0.0412
Cc1c(C#N)c2ccccc2n1CC(=O)NCCc1ccccc1 | > 100 | 0.398 | 0.411
C=CCC1C=C(Cc2ccccc2)CC(CC=C)N1 (configuration not stated) | 46 | 4.31 | 0.188
COc1ccccc1C(=O)Oc1ccccc1-c1nc2ccccn2c1NC(C)(C)CC(C)(C)C | > 10 | 1.58 | 0.0408
CC(C)CCNCC(O)Cn1c2ccccc2c2ccccc21 (configuration not stated) | 8.06 | 0.201 | 0.0323
CCCC(=O)N1CCN(c2nc(Cc3ccccc3)c3c(c2C#N)CC(C)(C)OC3)CC1 | > 90.9 | 0.324 | 0.363
Cc1c(C)n(Cc2ccc(F)cc2)c2ccc(C(=O)NCc3ccco3)cc12 | > 100 | 0.0782 | 0.399
CCOc1cc2c(cc1OCC)C(c1cc(Cl)ccc1O)NCC2 (configuration not stated) | 24.2 | 0.404 | 0.0964

Structure (SMILES) | CC50 [1] [µM] | EC50 (Plasmodium falciparum [2]) [µM] | EC50 (Plasmodium falciparum [3]) [µM]
CC1=C(C(=O)OC(C)C)C(c2ccc(Br)cc2)C2=C(CC(c3ccc(Cl)cc3)CC2=O)N1 (configuration not stated) | > 100 | 1.44 | 0.404
COc1ccc(Nc2nc(NN=Cc3cccc([N+](=O)[O-])c3)nc(Nc3ccc([N+](=O)[O-])cc3)n2)cc1 | > 100 | 0.406 | 0.404
O=c1c2ccccc2[nH]c2ccc(I)cc12 | > 100 | 0.393 | 0.418
CCCCNC1=CC(=O)C(=O)c2ccccc21 | > 77.9 | 0.481 | 0.324
CCCCc1ccc(C(=O)N(C)CCCNc2ccnc3cc(Cl)ccc23)cc1 | > 10 | 0.427 | 0.0416
O=C(c1ccc([N+](=O)[O-])cc1)N1CCC(c2nc(O)c3nnn(Cc4c(F)cccc4Cl)c3n2)CC1 | > 100 | 0.21 | 0.401
COc1ccc(NC2=C(c3ccc(OC)cc3)C(=O)c3ccccc32)cc1 | > 100 | 0.437 | 0.423
CCCc1nc2ccc(NC(=O)c3ccco3)cc2c(=O)n1Cc1ccc(-c2ccccc2)cc1 | > 100 | 0.262 | 0.422
CCOC(=O)c1ccc(NC2=C(N3CCCCC3)C(=O)c3ccccc3C2=O)cc1 | > 80.5 | 0.243 | 0.334
O=C(NCCc1ccccc1)c1cnc(NCCCN2CCCC2)nc1NCC1CCCCC1 | > 10 | 0.603 | > 0.0425
CCOC(=O)c1c(S(=O)(=O)Nc2ccc(C(C)(C)C)cc2)c(-c2ccccc2)n(-c2ccccc2)c1C | > 100 | 0.696 | 0.425
CCC(CC)CN1CCC(O)(c2ccc3oc(C(=O)Nc4ccc(OC)c(OC)c4)cc3c2)CC1 | > 85.9 | 0.344 | 0.36
OC(CN1CCN(Cc2ccccc2)CC1)Cn1c2ccc(Cl)cc2c2cc(Cl)ccc21 (configuration not stated) | 15.7 | 0.218 | 0.0657
OC(CN1CCN(CC=Cc2ccccc2)CC1)Cn1c2ccc(Cl)cc2c2cc(Cl)ccc21 (configuration not stated) | 17.9 | 0.181 | 0.075
CC(C)(C)CC(C)(C)Nc1c(-c2ccccc2OC(=O)c2cccc(Cl)c2)nc2ccccn12 | > 10 | 0.629 | 0.0416
C=CC1CN2CCC1CC2C(OC(=O)c1ccco1)c1ccnc2ccccc12 (configuration not stated) | 41.8 | 0.0357 | 0.181
COc1cc(C2C3=C(CC(C)(C)CC3=O)Nc3ccccc3N2C(=O)C(C)C)cc(OC)c1OC (configuration not stated) | > 10 | > 1.25 | 0.0407
CC(NC(=S)N(Cc1ccco1)Cc1cc2cc3c(cc2[nH]c1=O)OCO3)c1ccccc1 (configuration not stated) | > 100 | 1.37 | 0.405
CCC12C(=O)C(CC)(C(c3ccccc3)=C1c1ccccc1)C1C(=O)N(c3cccc(C(F)(F)F)c3)C(=O)C12 (configuration not stated) | > 100 | 2.41 | 0.401
CCCCNC(=O)C(c1cccc(OC)c1)N1C(=O)c2cc(OCCc3cccc(OC)c3)ccc2NC(=O)C1CO (configuration not stated) | > 10 | 0.11 | 0.0429
CCCc1c(C)nc2ccccc2c1O | > 100 | 0.63 | 0.429
S=C(Nc1ccccc1)N1CCCN(c2nc3ccc(Cl)cc3s2)CC1 | > 86.9 | 0.506 | 0.37
COc1cccc(CCN2Cc3ccc(C(=O)NC(C)C)cc3N=C2c2cccnc2)c1 | > 10 | 0.0171 | > 0.0423
COc1cc2nc(NC(=N)N)nc(C)c2cc1OC | > 10 | 0.0244 | 0.0441
O=C(c1ccccc1)N1CCN(c2ccccc2NC(=O)C(Cl)(Cl)Cl)CC1 | > 100 | 0.538 | 0.425
Nc1nonc1-n1nnc(C(=O)NN=Cc2cccc(Cl)c2)c1-c1ccccc1 | > 100 | 0.427 | 0.441
COc1ccc(-c2c[n+](CC(=O)c3ccc([N+](=O)[O-])cc3)c3n2CCC3)cc1 | > 100 | 0.518 | 0.426
